Assay results from US7635696B2, “Isoxazoline-indole derivatives with an improved antipsychotic and anxiolytic activity” (Janssen Pharmaceutica N.V., priority 2004, dated 2009).
Read-outs that look alike come from different tables or passages of the source.

Columns and labels:
human 5HT transporter = biological target: T1, human 5HT transporter (Homo sapiens, UniProt P31645); experiment: Binding experiment for 5-HT transporter ([3H]Paroxetine)
T1 construct: host or cells: HEK cells
Description: (§1) The interaction of the compounds of Formula (I) with dopamine-receptors, h5HT-transporter and h5HT1A receptor was assessed in in vitro radioligand binding experiments. In general, a low concentration of a radioligand with a high binding affinity for a particular receptor or transporter is incubated with a sample of a tissue preparation enriched in a particular receptor or transporter or with a preparation of cells expressing cloned human receptors in a buffered medium. During the incubation, the radioligand binds to the receptor or transporter. When equilibrium of binding is reached, the receptor bound radioactivity is separated from the non-bound radioactivity, and the receptor- or transporter-bound activity is counted. The interaction of the test compounds with the receptor is assessed in competition binding experiments. Various concentrations of the test compound are added to the incubation mixture containing the receptor- or transporter preparation and the radioligand. The test compound in proportion to its binding affinity and its concentration inhibits binding of the radioligand.
Frozen human 5HT transporter-transfected HEK cells (Perkin Elmer, Brussels) were thawed and briefly homogenised using an Ultra-Turrax T25 homogeniser prior to dilution to an appropriate protein concentration optimised for specific and non-specific binding. [^3H]Paroxetine (NEN, specific activity 20 Ci/mmol) was diluted in Tris-HCl assay buffer containing NaCl and KCl (50 mM, 120 mM and 5 mM, respectively; pH 7.4) at a concentration of 5 nmol/L. Prepared radioligand (25 μl) was then incubated (60 min, 25° C.) with membrane preparations (200 μl) and with 25 μl of either 10% DMSO control, Inipramine (10^−6 mol/L final concentration), or compound of interest. Membrane-bound activity was detected by filtration through a Packard Filtermate harvester onto Unifilterplates pre-soaked in 0.1% PEI, washing with ice-cold assay buffer (3×4 ml). Filters were dried prior to addition of scintillation fluid and then counting in a Topcount scintillation counter. % Specific bound and competition binding curves were calculated using S-Plus software (Insightful).

[1] = biological target: T2, Human Dopamine D2L receptor (Homo sapiens, UniProt P14416); experiment: Binding experiment for dopamine D2 receptor ([3H]Spiperone); details: D2L-transfected CHO cell membranes; for IC50: read-out: pIC50 D2 (converted)
T2 construct: expressed in transfected cells; host or cells: CHO cells
T2 sequence (P14416 whole entry): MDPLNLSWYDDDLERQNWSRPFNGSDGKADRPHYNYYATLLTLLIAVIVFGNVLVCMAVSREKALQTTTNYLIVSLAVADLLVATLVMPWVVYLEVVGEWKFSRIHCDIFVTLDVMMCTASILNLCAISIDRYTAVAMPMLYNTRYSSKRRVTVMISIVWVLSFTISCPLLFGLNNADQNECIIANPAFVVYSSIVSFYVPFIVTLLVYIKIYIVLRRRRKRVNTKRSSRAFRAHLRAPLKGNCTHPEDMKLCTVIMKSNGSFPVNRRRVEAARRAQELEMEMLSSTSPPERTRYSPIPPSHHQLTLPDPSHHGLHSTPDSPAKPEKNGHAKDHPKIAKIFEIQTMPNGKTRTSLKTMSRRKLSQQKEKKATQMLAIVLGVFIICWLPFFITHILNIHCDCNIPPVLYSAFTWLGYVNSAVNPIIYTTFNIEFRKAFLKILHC
Description: as §1
Human Dopamine D2L receptor-transfected CHO cells were collected by scraping into ice-cold Tris-HCl buffer (50 mM, pH 7.4). The suspension was centrifuged (23 500×g, 10 min, 4° C.) and pellets stored at −70° C. until required. They were then thawed and briefly homogenised using an Ultra-Turrax T25 homogeniser prior to dilution to an appropriate protein concentration optimised for specific and non-specific binding. [^3H]Spiperone (NEN, specific activity ˜70 Ci/mmol) was diluted in Tris-HCl assay buffer containing NaCl, CaCl2, MgCl2, KCl (50, 120, 2, 1, and 5 mM respectively, adjusted to pH 7.7 with HCl) at a concentration of 2 nmol/L. Prepared radioligand (50 μl) was then incubated (30 min, 37° C.) with membrane preparations pre-diluted to an appropriate protein concentration (400 μl), and with 50 μl of either the 10% DMSO control, Butaclamol (10^−6 mol/L final concentration), or compound of interest. Membrane-bound activity was detected by filtration through a Packard Filtermate harvester onto Unifilterplates, washing with ice-cold Tris-HCl buffer (50 mM; pH8.0; 3×4 ml). Filters were allowed to dry before adding scintillation fluid and counting in a Topcount scintillation counter. % Specific bound and competition binding curves were calculated using S-Plus software (Insightful).

Human 5HT1A receptor = biological target: T3, Human 5HT1A receptor (Homo sapiens, UniProt P08908); experiment: Binding experiment for 5-HT1A receptor ([3H]8OHDPAT)
T3 construct: expressed in transfected cells; host or cells: L929 cells (stably transfected)
T3 sequence (P08908 1-422): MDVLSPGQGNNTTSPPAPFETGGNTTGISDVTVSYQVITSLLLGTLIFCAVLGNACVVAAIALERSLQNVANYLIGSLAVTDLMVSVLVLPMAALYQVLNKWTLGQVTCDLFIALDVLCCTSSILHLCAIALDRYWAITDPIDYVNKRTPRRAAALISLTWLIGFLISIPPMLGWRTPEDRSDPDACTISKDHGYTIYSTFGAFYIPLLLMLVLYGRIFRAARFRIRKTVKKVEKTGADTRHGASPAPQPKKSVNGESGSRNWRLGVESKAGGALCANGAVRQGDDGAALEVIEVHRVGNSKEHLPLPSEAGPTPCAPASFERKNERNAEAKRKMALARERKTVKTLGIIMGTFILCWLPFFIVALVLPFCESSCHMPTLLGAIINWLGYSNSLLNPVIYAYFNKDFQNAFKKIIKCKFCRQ
Description: as §1
Human 5HT1A receptor-transfected L929 cells were collected by scraping into ice-cold Tris-HCl buffer (50 mM, pH 7.4). The suspension was centrifuged (23 500×g, 10 min, 4° C.) and pellets stored at −70° C. until required. They were then thawed and briefly homogenised using an Ultra-Turrax T25 homogeniser prior to dilution to an appropriate protein concentration optimised for specific and non-specific binding. [^3H]80HDPAT (NEN, specific activity 127 Ci/mmol) was diluted in Tris-HCl assay buffer containing CaCl2 (50 mM and 4 mM, respectively; pH 7.7) at a concentration of 5 nmol/L. Prepared radioligand (50 μl) was then incubated (30 min, 37° C.) with membrane preparations from L929 cells stably-transfected with the h5HT1A gene construct (400 μl) and with 50 μl of either the 10% DMSO control, spiroxatrine (10^−6 mol/L final concentration), or compound of interest. Membrane-bound activity was detected by filtration through a Packard Filtermate harvester onto Unifilterplates, washing with ice-cold Tris-HCl buffer (3×4 ml), followed by drying. Scintillation fluid was added and membranes were counted in a Topcount scintillation counter. % Specific bound and competition binding curves were calculated using S-Plus software (Insightful).

[2] = transfected HEK cell membranes, [3H]Paroxetine, read-out: pIC50 5HTT (converted)
[3] = transfected HEK cell membranes, [3H]Paroxetine
[4] = transfected L929 cell membranes, [3H]8OHDPAT
[5] = transfected L929 cell membranes, [3H]8OHDPAT, read-out: pIC50 5-HT1A (converted)

T1 sequence (P31645 whole entry): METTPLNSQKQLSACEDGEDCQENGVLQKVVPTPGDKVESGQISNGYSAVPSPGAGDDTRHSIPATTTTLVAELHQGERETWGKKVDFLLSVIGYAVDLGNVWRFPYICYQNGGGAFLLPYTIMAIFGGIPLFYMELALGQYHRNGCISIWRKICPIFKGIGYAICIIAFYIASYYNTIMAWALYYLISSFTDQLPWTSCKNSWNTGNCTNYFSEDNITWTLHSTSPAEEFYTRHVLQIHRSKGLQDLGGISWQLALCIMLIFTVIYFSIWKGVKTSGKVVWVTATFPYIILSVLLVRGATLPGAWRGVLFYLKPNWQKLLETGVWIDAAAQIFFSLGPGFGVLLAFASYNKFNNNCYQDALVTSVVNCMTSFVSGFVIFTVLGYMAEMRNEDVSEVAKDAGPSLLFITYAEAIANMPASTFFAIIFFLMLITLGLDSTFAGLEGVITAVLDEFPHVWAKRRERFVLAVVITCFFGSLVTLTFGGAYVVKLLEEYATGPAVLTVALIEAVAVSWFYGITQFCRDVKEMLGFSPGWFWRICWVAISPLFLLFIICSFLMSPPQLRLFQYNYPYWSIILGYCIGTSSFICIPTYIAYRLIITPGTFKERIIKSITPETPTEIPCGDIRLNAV

SMILES	IC50 (human 5HT transporter; [2])	IC50 [1]	pIC50 5HTT (human 5HT transporter; [3])	pIC50 5-HT1A (Human 5HT1A receptor; [4])	pIC50 D2 [1]	further results
CC(=O)Nc1ccc2c(c1)OCC1C2=NOC1CN1CCC(c2c[nH]c3ccc(F)cc23)CC1 (stereo not drawn) [Compound 46]	50.1 nM	316 nM				
COc1cc2c(cc1OC)C1=NOC(CN3CC=C(c4c[nH]c5ccc(NS(C)(=O)=O)cc45)CC3)C1CO2.O=C(O)C(F)(F)F (racemic) [Compound 43]			<5	8.7	6.0	
COc1cc2c(cc1OC)C1=NOC(CN3CCC(c4c[nH]c5ccccc45)CC3)C1CO2.O=C(O)C(=O)O (single isomer, unassigned) [Compound 45]			6.9	7.0	6.3	
Fc1ccc2[nH]cc(C3=CCN(CC4ON=C5c6ccc(NCCN7CCCC7)cc6OCC54)CC3)c2c1 (racemic) [Compound 56]			8.1	8.1	6.8	
Fc1ccc2c(C3CCN(CC4ON=C5c6ccc(N7CCOCC7)cc6OCC54)CC3)c[nH]c2c1 (racemic) [Compound 52]			7.4	7.5	7.5	
COc1cc2c(cc1OC)C1=NOC(CN3CCC(c4c[nH]c5cc(F)ccc45)CC3)C1CO2 (single isomer, unassigned) [Compound 35]			7.3	6.4	6.9	
COc1cc2c(cc1OCCO)OCC1C2=NOC1CN1CCC(c2c[nH]c3ccc(F)cc23)CC1 (racemic) [Compound 47]	398 nM	100 nM				
COc1cc2c(cc1OC)C1=NOC(CN3CCC(c4c[nH]c5ccc(Br)cc45)CC3)C1CO2 (racemic) [Compound 53]			6.4		6.7	
COc1cc2c(cc1OC)C1=NOC(CN3CC=C(c4c[nH]c5ccc(NC(C)=O)cc45)CC3)C1CO2 (racemic) [Compound 40]	> 10000 nM	> 10000 nM				IC50 (Human 5HT1A receptor; [5]): 3.16 nM
CCOC(=O)CNC(=O)Nc1ccc2[nH]cc(C3=CCN(CC4ON=C5c6cc(OC)c(OC)cc6OCC54)CC3)c2c1 (racemic) [Compound 39]			<5	7.8	<5	
COc1cc2c(cc1OC)C1=NO[C@@H](CN3CCC(n4ccc5ccccc54)CC3)[C@@H]1CO2 (racemic) [Compound 58]	631 nM	501 nM				IC50 (Human 5HT1A receptor): 25.1 nM
COc1cc2c(cc1OC)C1=NO[C@@H](CN3CC=C(c4cn(C)c5ccccc45)CC3)[C@@H]1CO2 (single isomer, unassigned) [Compound 34]		2000 nM				IC50 (human 5HT transporter): 63.1 nM; IC50 (Human 5HT1A receptor): 20 nM
COc1cc2c(cc1OC)C1=NOC(CN3CCC(c4c[nH]c5ccc(O)cc45)CC3)C1CO2 (racemic) [Compound 54]	63.1 nM	398 nM				
COCC(=O)Nc1ccc2[nH]cc(C3=CCN(CC4ON=C5c6cc(OC)c(OC)cc6OCC54)CC3)c2c1 (racemic) [Compound 41]			<5	8.3	<5	
COc1cc2c(cc1OCCOC(C)=O)OCC1C2=NOC1CN1CCC(c2c[nH]c3ccc(F)cc23)CC1 (racemic) [Compound 48]	79.4 nM	158 nM				IC50 (Human 5HT1A receptor; [5]): 1.58 nM
Fc1ccc2[nH]cc(C3=CCN(CC4ON=C5c6ccc(N7CCOCC7)cc6OCC54)CC3)c2c1 (racemic) [Compound 55]			7.5	7.8	6.3	
COc1cc2c(cc1OC)C1=NOC(CN3CCC(Cc4c[nH]c5ccc(F)cc45)CC3)C1CO2 (racemic) [Compound 57]			8.3	6.4	6.3	
CCOC(=O)C(=O)Nc1ccc2[nH]cc(C3=CCN(CC4ON=C5c6cc(OC)c(OC)cc6OCC54)CC3)c2c1 (racemic) [Compound 42]			<5.5	8.2	<5	
COc1cc2c(cc1OC)C1=NOC(CN3CC=C(c4c[nH]c5ccc(N)cc45)CC3)C1CO2 (stereo not drawn) [Compound 33]	631 nM	1260 nM				IC50 (Human 5HT1A receptor; [5]): 12.6 nM
COCCOCOc1cc2c(cc1OC)C1=NOC(CN3CC=C(c4c[nH]c5ccc(F)cc45)CC3)C1CO2 (racemic) [Compound 63]			7.6	6.0	7.9	
COc1cc2c(cc1OC)C1=NOC(CN3CC=C(c4c[nH]c5ccc(NC(=O)Nc6ccccc6)cc45)CC3)C1CO2 (racemic) [Compound 38]			<5	8.4	<5	
CCNC(=O)OCCOc1cc2c(cc1OC)C1=NOC(CN3CCC(c4c[nH]c5ccc(F)cc45)CC3)C1CO2 (racemic) [Compound 50]			6.9	8.6	6.8	
COCC(=O)OCCOc1cc2c(cc1OC)C1=NOC(CN3CCC(c4c[nH]c5ccc(F)cc45)CC3)C1CO2 (racemic) [Compound 49]			6.9		6.7	
Nc1ccc2c(c1)OCC1C2=NOC1CN1CC=C(c2c[nH]c3ccc(F)cc23)CC1 (racemic) [Compound 61]			6.9	7.3		
COc1cc2c(cc1OC)C1=NOC(CN3CCC(c4coc5cc(F)ccc45)CC3)C1CO2 (stereo not drawn) [Compound 59]	79.4 nM	100 nM				IC50 (Human 5HT1A receptor; [5]): 15.8 nM
COc1ccc2[nH]cc(C3CCN(CC4ON=C5c6cc(OC)c(OC)cc6OCC54)CC3)c2c1 (racemic) [Compound 8]	1260 nM	> 1000 nM				IC50 (Human 5HT1A receptor; [5]): 7.94 nM
CCNC(=O)Nc1ccc2[nH]cc(C3=CCN(CC4ON=C5c6cc(OC)c(OC)cc6OCC54)CC3)c2c1 (racemic) [Compound 37]	> 10000 nM	> 10000 nM				IC50 (Human 5HT1A receptor; [5]): 7.94 nM
COc1cc2c(cc1OC)C1=NOC(CN3CCC(c4c[nH]c5cc(F)ccc45)CC3)C1CO2 (single isomer, unassigned) [Compound 36]			6.8	8.0	7.5	
Fc1ccc2c(C3CCN(CC4ON=C5c6ccc(NCCN7CCCC7)cc6OCC54)CC3)c[nH]c2c1 (racemic) [Compound 51]			8.2	7.7	7.9	
